Converted amounts (≈) assume the structure as drawn. Like-named read-outs stand apart in the source and are kept apart here.
Columns and labels:
[1] = system: Fusarium graminearum Fg15 strain; format: cell-based; settings: 25° C., 1 week
[2] = system: Fusarium graminearum Fg15 strain; assay: microbe, parasite or virus in culture; format: cell-based; settings: FG15STRAIN, read-out: MIC value (minimum inhibition concentration)
[3] = system: Fusarium graminearum H-3 strain; format: in vivo, wheat
[4] = system: Fusarium graminearum H-3 strain; format: in vivo, barley; settings: 18% wettable powder, 2000-fold dilution, 1500 L/ha, once in browning stage

## CC1(C)CCC(Cc2ccc(Cl)cc2)C1(O)Cn1cncn1 (stereo not shown) [metconazole]
[1]; PDA medium containing metconazole at 0.1 ppm
  toxin (DON) amount per cell weight versus medium containing no metconazole: significantly smaller
[1]; PDA medium containing metconazole at 0.2 ppm
  toxin (DON) amount per cell weight versus medium containing no metconazole: significantly smaller
[2]
  MIC: 1.56 µg/mL (≈ 4.88 µM)
[3]; 18% wettable powder, 2000-fold dilution, 1500 L/ha, once in yellowing stage or each once in flowering and yellowing stage, 2 weeks after cropping, FIG. 2
  mycotoxin (DON) in wheat grains versus grain cropped without application: significantly smaller amount of the toxin
[3]; application in the pre-cropping yellowing stage
  accumulation of the toxin in wheat grains after cropping: inhibited
[4]
  DON accumulation level in barley grain at the time of cropping: 704 ppb
[4]; room temperature storage for a half year after cropping
  DON accumulation level in barley grain after storage for a half year: 407 ppb

Source: US20140039018A1 (priority 2011, published 2014)
